Target: T1, human complement factor D (Homo sapiens, UniProt P00746)
T1 construct: purchased R&D Systems 1824-SE
Test: In vitro enzyme inhibition (Z-Lys-SBzl/DTNB absorbance assay)
Type: biochemical
Settings: Complement Factor D (R&D Systems), substrate Z-Lys-SBzl, A405 nm; read-out: CFD IC50
Outline: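 Factor D (6.25 ng/μL before addition) preincubated 5 min RT with compound (8 points from 50 μM, 6-fold, 0.5% DMSO final) in 50 mM Tris/HCl pH 7.5, 1 M NaCl, then Z-Lys-SBzl/DTNB added (200 μM each before addition). A405 read kinetically every 30 s for 60 min; IC50 from variable-slope fit, controls with and without enzyme.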

T1 sequence (P00746 26-253): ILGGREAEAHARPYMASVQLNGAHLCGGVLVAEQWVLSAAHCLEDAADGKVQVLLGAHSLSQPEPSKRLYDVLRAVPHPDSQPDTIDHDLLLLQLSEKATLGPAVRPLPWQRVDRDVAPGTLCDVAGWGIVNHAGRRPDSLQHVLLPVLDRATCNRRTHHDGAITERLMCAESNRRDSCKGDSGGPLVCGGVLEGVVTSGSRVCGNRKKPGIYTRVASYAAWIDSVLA

Row | Compound | IC50 [nM]
1 | CC(=O)N1CCN(C(=O)Cn2nc(C(N)=O)c3ccccc32)[C@H](C(=O)Nc2cccc(Cl)n2)C1 [Example 27, (S)-1-(2-(4-acetyl-2-((6-chloropyridin-2-yl)carbamoyl)piperazin-1-yl)-2-oxoethyl)-1H-indazole-3-carboxamide] | 1000 to 10000
2 | NC(=O)c1nn(CC(=O)N2[C@@H]3CCC(C3)[C@H]2C(=O)Nc2cccc(Cl)n2)c2ccc(Cl)cc12 [Example 12, 5-chloro-1-(2-((1R,3S)-3-((6-chloropyridin-2-yl)carbamoyl)-2-azabicyclo[2.2.1]heptan-2-yl)-2-oxoethyl)-1H-indazole-3-carboxamide] | 1000 to 10000
3 | COC(=O)c1ccc(NC(=O)[C@@H]2[C@H]3CC[C@H](C3)N2C(=O)Cn2nc(C(N)=O)c3ccccc32)nc1Cl [Example 107, Methyl 6-((1R,3S,4S)-2-(2-(3-carbamoyl-1H-indazol-1-yl)acetyl)-2-azabicyclo[2.2.1]heptane-3-carboxamido)-2-chloronicotinate] | 1000 to 10000
4 | CC(C)=C(F)C(C)NC(=O)[C@@H]1[C@H]2CC[C@H](C2)N1C(=O)Cn1nc(C(N)=O)c2ccccc21 (stereo partly drawn) [Example 135, 1-(2-((1R,3S,4S)-3-((3-fluoro-4-methylpent-3-en-2-yl)carbamoyl)-2-azabicyclo[2.2.1]heptan-2-yl)-2-oxoethyl)-1H-indazole-3-carboxamide] | > 10000

The next lines start with the values.

Row | IC50 [nM] | Compound
5 | 1000 to 10000 | CC(=O)c1nc(CC(=O)N2CC[C@H]2C(=O)NCc2cccc(Cl)c2F)n2ccccc12 [Example 192, (S)-1-(2-(1-acetylimidazo[1,5-a]pyridin-3-yl)acetyl)-N-(3-chloro-2-fluorobenzyl)azetidine-2-carboxamide]
6 | 100 to 1000 | NC(=O)c1nn(CC(=O)N2[C@H](C(=O)Nc3cccc(Cl)c3F)C[C@@H]3CCC[C@@H]32)c2ccccc12 [Example 158, 1-(2-((2S,3aS,6aS)-2-((3-chloro-2-fluorophenyl)carbamoyl)hexahydrocyclopenta[b]pyrrol-1(2H)-yl)-2-oxoethyl)-1H-indazole-3-carboxamide]
7 | 1000 to 10000 | NC(=O)c1nn(CC(=O)N2[C@@H]3CC[C@@H](C3)[C@H]2C(=O)NCc2c(Br)ccc(Cl)c2F)c2ccccc12 [Example 115, 1-(2-((1R,3S,4S)-3-((6-bromo-3-chloro-2-fluorobenzyl)carbamoyl)-2-azabicyclo[2.2.1]heptan-2-yl)-2-oxoethyl)-1H-indazole-3-carboxamide]
8 | 1000 to 10000 | NC(=O)c1nn(CC(=O)N2[C@@H]3CC[C@@H](C3)[C@H]2C(=O)Nc2cccc(OC(F)(F)F)c2F)c2cnccc12 [Example 42, 1-(2-((1R,3S,4S)-3-((2-fluoro-3-(trifluoromethoxy)phenyl)carbamoyl)-2-azabicyclo[2.2.1]heptan-2-yl)-2-oxoethyl)-1H-pyrazolo[3,4-c]pyridine-3-carboxamide]
9 | 100 to 1000 | COc1ccc2c(c1)c(C(N)=O)nn2CC(=O)N1[C@H](C(=O)Nc2cccc(Cl)n2)C[C@@H]2CCC[C@@H]21 [Example 170, 1-(2-((2S,3aS,6aS)-2-((6-chloropyridin-2-yl)carbamoyl)hexahydrocyclopenta[b]pyrrol-1(2H)-yl)-2-oxoethyl)-5-methoxy-1H-indazole-3-carboxamide]
10 | 1000 to 10000 | COC(=O)c1ccc(Cl)c(F)c1CNC(=O)[C@@H]1[C@H]2CC[C@H](C2)N1C(=O)Cn1nc(C(N)=O)c2ccccc21 [Example 116, methyl 2-(((1R,3S,4S)-2-(2-(3-carbamoyl-1H-indazol-1-yl)acetyl)-2-azabicyclo[2.2.1]heptane-3-carboxamido)methyl)-4-chloro-3-fluorobenzoate]
11 | 1000 to 10000 | NC(=O)Cc1nn(CC(=O)N2[C@@H]3CC[C@@H](C3)[C@H]2C(=O)Nc2cccc(Cl)n2)c2ccccc12 [Example 94, (1R,3S,4S)-2-(2-(3-(2-amino-2-oxoethyl)-1H-indazol-1-yl)acetyl)-N-(6-chloropyridin-2-yl)-2-azabicyclo[2.2.1]heptane-3-carboxamide]

From US20190127366A1 (LifeSci Pharmaceuticals, Inc., priority 2015, published 2019)
